pIC50: −log10 of the molar value.
Assays:
[1] = target: T1, glucosylceramide synthase (GCS) (Homo sapiens, UniProt Q16739); test: GCS enzyme inhibition assay (A549 cell lysate, NBD C6-ceramide, HPLC fluorescence); format: biochemical; conditions: inhibitory activity against GCS, 37° C., 90 minutes
T1 construct: The obtained supernatant was used; host or cells: A549 cells (lysate supernatant after sonication)
T1 sequence (Q16739 1-394): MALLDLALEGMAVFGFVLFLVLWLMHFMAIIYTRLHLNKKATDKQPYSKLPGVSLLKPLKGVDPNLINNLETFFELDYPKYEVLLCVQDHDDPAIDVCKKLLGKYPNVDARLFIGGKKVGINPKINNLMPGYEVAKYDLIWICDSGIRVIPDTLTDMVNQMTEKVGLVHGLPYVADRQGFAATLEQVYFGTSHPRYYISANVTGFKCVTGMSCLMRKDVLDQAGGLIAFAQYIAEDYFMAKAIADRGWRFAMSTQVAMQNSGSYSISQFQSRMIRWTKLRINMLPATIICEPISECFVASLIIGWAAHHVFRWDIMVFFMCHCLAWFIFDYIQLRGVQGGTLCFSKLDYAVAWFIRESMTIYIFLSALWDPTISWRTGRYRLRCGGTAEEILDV
Outline: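 A549 cell lysate (50 mM HEPES pH 7.3) served as GCS source; reactions ran 90 min at 37° C, were stopped with chloroform/methanol and lipids extracted. Activity taken as GlcCer/(Cer+GlcCer) peak area, normalised between DMSO and ibiglustat controls.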

[2] = system: GM1 production in Jurkat cells; test: cells; format: cell-based; conditions: Homo sapiens, Jurkat, 72 h

CC1(C)COc2cc(-c3ccc(CC#N)cc3)ccc2C1NC(=O)O[C@@H]1CN2CCC1CC2 (stereo partly drawn) [Example 280, (S)-quinuclidin-3-yl (7-(4-(cyanomethyl)phenyl)-3,3-dimethylchroman-4-yl)carbamate]
pIC50 [1]: 9.21
pIC50 [2]: 8.03

CC1(C)COc2cc(-c3cccc(CC#N)c3)ccc2C1NC(=O)O[C@@H]1CN2CCC1CC2 (stereo partly drawn) [Example 281, (S)-quinuclidin-3-yl (7-(3-(cyanomethyl)phenyl)-3,3-dimethylchroman-4-yl)carbamate]
pIC50 [1]: 9.19
pIC50 [2]: 8.16

CC1(C)COc2cc(/C=C/c3ccc(-c4ccccc4)cc3)ccc2C1NC(=O)O[C@@H]1CN2CCC1CC2 (stereo partly drawn) [Example 282, (S)-quinuclidin-3-yl (7-((E)-2-([1,1′-diphenyl]-4-yl)vinyl)-3,3-dimethylchroman-4-yl)carbamate]
pIC50 [1]: 8.79
pIC50 [2]: 8.70

CC1(C)COc2cc(-c3cnc(C4CC4)nc3)ccc2C1NC(=O)O[C@@H]1CN2CCC1CC2 (stereo partly drawn) [Example 283, (S)-quinuclidin-3-yl (7-(2-cyclopropylpyrimidin-5-yl)-3,3-dimethylchroman-4-yl)carbamate]
pIC50 [1]: 8.66
pIC50 [2]: 7.59

CC1(C)COc2cc(/C=C/c3ccc(C(F)(F)F)cc3)ccc2C1NC(=O)O[C@@H]1CN2CCC1CC2 (stereo partly drawn) [Example 284, (S)-quinuclidin-3-yl (3,3-dimethyl-7-((E)-4-(trifluoromethyl)styryl)chroman-4-yl)carbamate]
pIC50 [1]: 9.04
pIC50 [2]: 9.30

Cc1cc(C)c(Cl)c(-c2ccc3c(c2)OCC(C)(C)C3NC(=O)O[C@@H]2CN3CCC2CC3)c1 (stereo partly drawn) [Example 285, (S)-quinuclidin-3-yl (7-(2-chloro-3,5-dimethylphenyl)-3,3-dimethylchroman-4-yl)carbamate]
pIC50 [1]: 8.71
pIC50 [2]: 8.01

CC1(C)COc2cc(/C=C/c3ccc(F)cc3F)ccc2C1NC(=O)O[C@@H]1CN2CCC1CC2 (stereo partly drawn) [Example 286, (S)-quinuclidin-3-yl (7-((E)-2,4-difluorostyryl)-3,3-dimethylchroman-4-yl)carbamate]
pIC50 [1]: 9.03
pIC50 [2]: 8.48

CCc1ccc(/C=C/c2ccc3c(c2)OCC(C)(C)C3NC(=O)O[C@@H]2CN3CCC2CC3)cc1 (stereo partly drawn) [Example 287, (S)-quinuclidin-3-yl (7-((E)-4-ethylstyryl)-3,3-dimethylchroman-4-yl)carbamate]
pIC50 [1]: 9.10
pIC50 [2]: 9.00

CCOc1ccc2cc(-c3ccc4c(c3)OCC(C)(C)C4NC(=O)O[C@@H]3CN4CCC3CC4)ccc2c1 (stereo partly drawn) [Example 288, (S)-quinuclidin-3-yl (7-(6-ethoxynaphthalen-2-yl)-3,3-dimethylchroman-4-yl)carbamate]
pIC50 [1]: 8.95
pIC50 [2]: 9.15

CC1(C)COc2cc(/C=C/c3cccc(F)c3)ccc2C1NC(=O)O[C@@H]1CN2CCC1CC2 (stereo partly drawn) [Example 289, (S)-quinuclidin-3-yl (7-((E)-3-fluorostyryl)-3,3-dimethylchroman-4-yl)carbamate]
pIC50 [1]: 9.21
pIC50 [2]: 8.85

CC1(C)COc2cc(-c3cccc4c3oc3ccccc34)ccc2C1NC(=O)O[C@@H]1CN2CCC1CC2 (stereo partly drawn) [Example 290, (S)-quinuclidin-3-yl (7-(dibenzo[b,d]furan-4-yl)-3,3-dimethylchroman-4-yl)carbamate]
pIC50 [1]: 8.81
pIC50 [2]: 9.05

CC1(C)COc2cc(-c3ccc(C#N)c(F)c3)ccc2C1NC(=O)O[C@@H]1CN2CCC1CC2 (stereo partly drawn) [Example 291, (S)-quinuclidin-3-yl (7-(4-cyano-3-fluorophenyl)-3,3-dimethylchroman-4-yl)carbamate]
pIC50 [1]: 8.99
pIC50 [2]: 8.05

CC1(C)COc2cc(-c3ccc(=O)n(Cc4ccccc4)c3)ccc2C1NC(=O)O[C@@H]1CN2CCC1CC2 (stereo partly drawn) [Example 292, (S)-quinuclidin-3-yl (7-(1-benzyl-6-oxo-1,6-dihydropyridin-3-yl)-3,3-dimethylchroman-4-yl)carbamate]
pIC50 [1]: 8.86
pIC50 [2]: 7.52
